Test results taken from PubChem BioAssay AID1259411 (Chemical Carcinogenesis Research Information System (CCRIS), 2018).
Calls of active or inactive are those of the source. No rule for the calls is given here.

Tested on: rodent carcinogenicity bioassays, tumor incidence
Experiment: CCRIS carcinogenicity studies
Summary of the method: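 Archive of carcinogenicity, mutagenicity, tumor promotion and tumor inhibition results drawn from journals, NCI reports and other sources, expert-reviewed; covers 1985-2011 and is no longer updated.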

Compound: CN(C)C(=S)SSC(=S)N(C)C
- carcinogen call (Species: DOG, Strain/Sex: BEAGLE/FEMALE, Route: ORAL, Dose: 0, 0.4, 4, 40 MG/KG/D ADMINISTERED IN GELATIN CAPSULES 7 D/WK FOR 104 WK (STUDY DURATION: 104 WK), Dose: 0, 0.4, 4, 40 MG/KG/D ADMINISTERED IN GELATIN CAPSULES 7 D/WK FOR 104 WK (STUDY DURATION: 104 WK)): inactive; negative
- carcinogen call (Species: DOG, Strain/Sex: BEAGLE/MALE, Route: ORAL, Dose: 0, 0.4, 4, 40 MG/KG/D ADMINISTERED IN GELATIN CAPSULES 7 D/WK FOR 104 WK (STUDY DURATION: 104 WK), Dose: 0, 0.4, 4, 40 MG/KG/D ADMINISTERED IN GELATIN CAPSULES 7 D/WK FOR 104 WK (STUDY DURATION: 104 WK)): inactive; negative
- carcinogen call (Species: MOUSE, Strain/Sex: SWISS/FEMALE, Route: DERMAL, Dose: 0, 100 MG/KG BW IN 100 µL DMSO 3/WK FOR 52 WK (STUDY DURATION: 52 WK)): inactive; negative
- carcinogen call (Species: MOUSE, Strain/Sex: SWISS/MALE, Route: 0, 100 MG/KG BW IN 100 µL DMSO 3/WK FOR 52 WK (STUDY DURATION: 52 WK)): inactive; negative
- carcinogen call (Species: RAT, Strain/Sex: F344/FEMALE, Route: ORAL, Dose: 0, 0.05, 0.1% IN DIET FOR 104 WK (STUDY DURATION: 112 WK), Dose: 0, 0.05, 0.1% IN DIET FOR 104 WK (STUDY DURATION: 112 WK)): inactive; negative
- carcinogen call (Species: RAT, Strain/Sex: F344/MALE, Route: ORAL, Dose: 0, 0.05, 0.1% IN DIET FOR 104 WK (STUDY DURATION: 112 WK), Dose: 0, 0.05, 0.1% IN DIET FOR 104 WK (STUDY DURATION: 112 WK)): inactive; negative
- carcinogen call (Species: RAT, Strain/Sex: WISTAR/FEMALE, Route: ORAL, Dose: 0, 3, 30, 300 PPM IN DIET FOR 104 WK (STUDY DURATION: 104 WK), Dose: 0, 3, 30, 300 PPM IN DIET FOR 104 WK (STUDY DURATION: 104 WK)): inactive; negative
- carcinogen call (Species: RAT, Strain/Sex: WISTAR/MALE, Route: ORAL, Dose: 0, 3, 30, 300 PPM IN DIET FOR 104 WK (STUDY DURATION: 104 WK), Dose: 0, 3, 30, 300 PPM IN DIET FOR 104 WK (STUDY DURATION: 104 WK)): inactive; negative

Compound: CC(=O)CN(N=O)C(N)=O
- carcinogen call (Species: RAT, Strain/Sex: F344/FEMALE, Route: GAVAGE, Dose: 0, 8 MG/ML IN CORN OIL/ETHYL ACETATE (2:1) 2/WK FOR 30 WK (STUDY DURATION: LIFETIME), Tumor Site: Type of Lesion: KIDNEY MESENCHYME: TUMOR, THYROID: FOLLICULAR TUMOR): active; positive
- carcinogen call (Species: RAT, Strain/Sex: F344/MALE, Route: GAVAGE, Dose: 0, 8 MG/ML IN CORN OIL/ETHYL ACETATE (2:1) 2/WK FOR 30 WK (STUDY DURATION: LIFETIME), Tumor Site: Type of Lesion: LUNG: TUMOR, MESOTHELIUM: TUMOR, KIDNEY MESENCHYME: TUMOR, Tumor Site: Type of Lesion: LUNG: TUMOR, MESOTHELIUM: TUMOR, KIDNEY MESENCHYME: TUMOR): active; positive

Compound: Cc1cc(Cl)ccc1OCC(=O)O
- carcinogen call (Species: MOUSE, Strain/Sex: B6C3F1/FEMALE, Route: ORAL, Dose: 0, 20, 100, 500 PPM IN DIET FOR 104 WK (STUDY DURATION: 104 WK), Dose: 0, 20, 100, 500 PPM IN DIET FOR 104 WK (STUDY DURATION: 104 WK)): inactive; negative
- carcinogen call (Species: MOUSE, Strain/Sex: B6C3F1/MALE, Route: ORAL, Dose: 0, 20, 100, 500 PPM IN DIET FOR 104 WK (STUDY DURATION: 104 WK), Dose: 0, 20, 100, 500 PPM IN DIET FOR 104 WK (STUDY DURATION: 104 WK)): inactive; negative
- carcinogen call (Species: NEWT, Route: IMMERSION, Dose: 0, 100, 200, 400 PPM 4 D/WK FOR 12 MO (STUDY DURATION: 24 MO), Dose: 0, 100, 200, 400 PPM 4 D/WK FOR 12 MO (STUDY DURATION: 24 MO)): inactive; negative
- carcinogen call (Species: RAT, Strain/Sex: WISTAR/FEMALE, Route: ORAL, Dose: 0, 20, 80, 320 PPM IN DIET FOR 104 WK (STUDY DURATION: 104 WK), Dose: 0, 20, 80, 320 PPM IN DIET FOR 104 WK (STUDY DURATION: 104 WK)): inactive; negative
- carcinogen call (Species: RAT, Strain/Sex: WISTAR/MALE, Route: ORAL, Dose: 0, 20, 80, 320 PPM IN DIET FOR 104 WK (STUDY DURATION: 104 WK), Dose: 0, 20, 80, 320 PPM IN DIET FOR 104 WK (STUDY DURATION: 104 WK)): inactive; negative

Compound: O=CNC(N1CCOCC1)C(Cl)(Cl)Cl (centres undefined)
- carcinogen call (Species: RAT, Strain/Sex: WISTAR/FEMALE, Route: ORAL, Dose: 0, 67, 330, 665 MG/KG IN DIET LESS THAN 2 YR (STUDY DURATION: LESS THAN 2 YR), Dose: 0, 67, 330, 665 MG/KG IN DIET LESS THAN 2 YR (STUDY DURATION: LESS THAN 2 YR)): inactive; negative
- carcinogen call (Species: RAT, Strain/Sex: WISTAR/MALE, Route: ORAL, Dose: 0, 67, 330, 665 MG/KG IN DIET LESS THAN 2 YR (STUDY DURATION: LESS THAN 2 YR), Dose: 0, 67, 330, 665 MG/KG IN DIET LESS THAN 2 YR (STUDY DURATION: LESS THAN 2 YR)): inactive; negative

Compound: CNNC (tested in a mixture with another compound)
- carcinogen call (Species: RAT, Strain/Sex: CD-1/MALE, Route: INTRAPERITONEAL, Dose: 0, 10 MG/KG/WK FOR 4 WK (STUDY DURATION: 1 YEAR), Tumor Site: Type of Lesion: PANCREAS: ADENOCARCINOMA, COLON: ADENOCARCINOMA): active; positive

Compound: C[C@]12CC[C@H]3C(=CCc4cc(OS(=O)(=O)O)ccc43)[C@@H]1CCC2=O
- carcinogen call (Species: HAMSTER, Strain/Sex: SYRIAN/MALE, Route: SUBCUTANEOUS IMPLANT, Dose: 0, 20 MG IN PELLETS IMPLANTED EVERY 2.5 MO FOR 9 MO (STUDY DURATION: 9 MO), Tumor Site: Type of Lesion: KIDNEY: TUMOR): active; positive

Compound: NNc1ccccc1
- carcinogen call (Species: MOUSE, Route: ORAL, Tumor Site: Type of Lesion: BLOOD VESSELS, LUNG): active; positive

Compound: C=CC(=O)OCC(CC)CCCC (centres undefined)
- carcinogen call (Species: MOUSE, Strain/Sex: NMRI/MALE, Route: DERMAL, Dose: 0, 21.5, 43, 85% (W/W) IN ACETONE 3/WK FOR 2 YR (STUDY DURATION: 2 YR), Dose: 0, 21.5, 43, 85% (W/W) IN ACETONE 3/WK FOR 2 YR (STUDY DURATION: 2 YR)): inactive; negative

Compound: CC(=O)O[C@]1(C(C)=O)CC[C@H]2[C@@H]3C=C(Cl)C4=CC(=O)CC[C@]4(C)[C@H]3CC[C@@]21C
- carcinogen call (Species: DOG, Route: ORAL, Tumor Site: Type of Lesion: MAMMARY GLAND): active; positive

Compound: Cc1ccc(S(=O)(=O)Oc2ccc(N=Nc3ccc(-c4ccc(N=Nc5c(O)ccc6cc(S(=O)(=O)O)cc(S(=O)(=O)O)c56)c(C)c4)cc3C)cc2)cc1
- carcinogen call (Species: RAT, Strain/Sex: F344/FEMALE, Route: ORAL, Dose: 0, 150, 300, 600 PPM IN DRINKING WATER 7 D/WK FOR 104 WK (STUDY DURATION: 104 WK), Dose: 0, 150, 300, 600 PPM IN DRINKING WATER 7 D/WK FOR 104 WK (STUDY DURATION: 104 WK), Tumor Site: Type of Lesion: CLITORAL GLAND: ADENOMA OR CARCINOMA, LIVER: NEOPLASTIC NODULE OR HEPATOCELLULAR CARCINOMA, LUNG: ALVEOLAR/BRONCHIOLAR A, Tumor Site: Type of Lesion: CLITORAL GLAND: ADENOMA OR CARCINOMA, LIVER: NEOPLASTIC NODULE OR HEPATOCELLULAR CARCINOMA, LUNG: ALVEOLAR/BRONCHIOLAR A): active; positive
- carcinogen call (Species: RAT, Strain/Sex: F344/MALE, Route: ORAL, Dose: 0, 70, 150, 300 PPM IN DRINKING WATER 7 D/WK FOR 104 WK (STUDY DURATION: 104 WK), Dose: 0, 70, 150, 300 PPM IN DRINKING WATER 7 D/WK FOR 104 WK (STUDY DURATION: 104 WK), Tumor Site: Type of Lesion: LIVER: NEOPLASTIC NODULE OR HEPATOCELLULAR CARCINOMA, SKIN: BASAL CELL ADENOMA, BASAL CELL CARCINOMA, KERATOACANTHOMA, S): active; positive
